Values quoted from earlier work in US11338055B2, “Wound dressing” (Animal Ethics Pty Ltd, priority 2017, dated 2022).

Settings: typically up to about; depending on the method of administration

## CCCCN1CCCCC1C(=O)Nc1c(C)cccc1C (stereo not shown) [bupivacaine]
  duration of anaesthesia: 6 to 12 h
